Results taken from PMC8920929 (The Journal of Biological Chemistry, 2022).

Target: T1, TRPV3-L508V (Homo sapiens, UniProt Q8NET8, L508V)
T1 sequence (Q8NET8 1-790 L508V): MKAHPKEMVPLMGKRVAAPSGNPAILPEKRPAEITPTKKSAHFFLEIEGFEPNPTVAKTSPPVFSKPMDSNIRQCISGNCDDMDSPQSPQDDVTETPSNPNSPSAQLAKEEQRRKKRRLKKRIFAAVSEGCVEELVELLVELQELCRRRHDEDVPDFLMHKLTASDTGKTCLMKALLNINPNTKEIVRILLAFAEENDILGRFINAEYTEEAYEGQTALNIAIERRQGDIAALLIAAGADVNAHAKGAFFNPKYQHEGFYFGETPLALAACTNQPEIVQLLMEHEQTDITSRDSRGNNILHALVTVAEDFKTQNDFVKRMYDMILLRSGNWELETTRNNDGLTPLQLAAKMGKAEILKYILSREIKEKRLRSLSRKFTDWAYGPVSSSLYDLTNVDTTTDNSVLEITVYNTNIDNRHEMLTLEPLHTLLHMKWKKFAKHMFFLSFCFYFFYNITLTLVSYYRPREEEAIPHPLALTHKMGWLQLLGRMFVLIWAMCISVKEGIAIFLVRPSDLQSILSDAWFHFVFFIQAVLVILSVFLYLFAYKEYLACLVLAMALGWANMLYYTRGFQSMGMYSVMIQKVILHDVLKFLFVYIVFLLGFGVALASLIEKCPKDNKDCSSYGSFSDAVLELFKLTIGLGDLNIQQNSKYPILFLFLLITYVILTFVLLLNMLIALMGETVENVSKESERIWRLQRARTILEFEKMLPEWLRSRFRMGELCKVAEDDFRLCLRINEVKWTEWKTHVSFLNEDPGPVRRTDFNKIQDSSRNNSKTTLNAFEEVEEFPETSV
Assay: Whole-cell and single-channel recordings of the TRPV3-L508V mutant
Type: cell-based
Conditions: carvacrol 0.3-3 mM

activation of TRPV3 L508V mutant channel: retain the channel activation
Compound: Cc1ccc(C(C)C)cc1O [carvacrol, 5-Isopropyl-2-methylphenol]
